This note sets out measurements from ChEMBL document CHEMBL5465560, “Selectivity Literature for EUbOPEN Chemogenomic Library” (2024).

For assay [1], the target named is Ribosomal protein S6 kinase alpha-3 (Homo sapiens, UniProt P51812). Description: Selectivity interaction (Kinase panel (KiNativ target engagement assay in Jurkat cells)) EUB0001635a RPS6KA3. The assay is classed as cell-based. As to conditions: Selectivity number of off-targets 0.0, Selectivity number of targets 233.0, Source Knowledge https://www.sciencedirect.com/science/article/pii/S2451945619300674?via%3Dihub, at 1 µM.

Assay [2] deals with Serine/threonine-protein kinase Nek7 (Homo sapiens) (UniProt Q8TDX7). Description: Selectivity interaction (KinomeScan (DiscoverX)) EUB0000607a NEK7. As to conditions: at 10 µM.
In assay [3] the target is Serine/threonine-protein kinase MRCK alpha (Homo sapiens) (UniProt Q5VT25). Nature of the assay: Selectivity interaction (Kinase panel (DSF assay)) EUB0001558a CDC42BPA. In general terms: In DSF a fluorescence change marks the thermal transition of the protein.
For assay [4], the target named is T1, Inhibitor of nuclear factor kappa-B kinase subunit epsilon (Homo sapiens) (UniProt Q14164).
T1 sequence (whole entry): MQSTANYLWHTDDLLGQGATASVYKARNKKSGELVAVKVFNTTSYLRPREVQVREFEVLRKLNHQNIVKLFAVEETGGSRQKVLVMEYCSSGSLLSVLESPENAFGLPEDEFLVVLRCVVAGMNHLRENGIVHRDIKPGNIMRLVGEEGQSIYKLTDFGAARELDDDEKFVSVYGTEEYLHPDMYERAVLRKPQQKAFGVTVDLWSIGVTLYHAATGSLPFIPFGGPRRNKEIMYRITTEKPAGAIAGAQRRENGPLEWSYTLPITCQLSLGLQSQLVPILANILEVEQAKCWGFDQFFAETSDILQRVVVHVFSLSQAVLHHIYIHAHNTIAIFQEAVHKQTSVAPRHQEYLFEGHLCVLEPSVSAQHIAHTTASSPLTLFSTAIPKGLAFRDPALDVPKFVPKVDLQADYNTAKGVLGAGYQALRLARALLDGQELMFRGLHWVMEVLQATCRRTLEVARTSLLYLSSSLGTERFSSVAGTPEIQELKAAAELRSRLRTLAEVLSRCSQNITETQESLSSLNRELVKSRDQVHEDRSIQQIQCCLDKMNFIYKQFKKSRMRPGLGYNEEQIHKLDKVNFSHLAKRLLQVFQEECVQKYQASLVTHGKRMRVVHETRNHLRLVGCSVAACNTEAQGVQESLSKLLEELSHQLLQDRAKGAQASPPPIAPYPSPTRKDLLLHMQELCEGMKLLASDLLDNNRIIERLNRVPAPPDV
Description: Selectivity interaction (KinomeScan (DiscoverX)) EUB0000655a IKBKE. As to conditions: at 10 µM.

Assay [5] addresses T2, Interleukin-1 receptor-associated kinase 4 (Homo sapiens) (UniProt Q9NWZ3).
T2 sequence (whole entry): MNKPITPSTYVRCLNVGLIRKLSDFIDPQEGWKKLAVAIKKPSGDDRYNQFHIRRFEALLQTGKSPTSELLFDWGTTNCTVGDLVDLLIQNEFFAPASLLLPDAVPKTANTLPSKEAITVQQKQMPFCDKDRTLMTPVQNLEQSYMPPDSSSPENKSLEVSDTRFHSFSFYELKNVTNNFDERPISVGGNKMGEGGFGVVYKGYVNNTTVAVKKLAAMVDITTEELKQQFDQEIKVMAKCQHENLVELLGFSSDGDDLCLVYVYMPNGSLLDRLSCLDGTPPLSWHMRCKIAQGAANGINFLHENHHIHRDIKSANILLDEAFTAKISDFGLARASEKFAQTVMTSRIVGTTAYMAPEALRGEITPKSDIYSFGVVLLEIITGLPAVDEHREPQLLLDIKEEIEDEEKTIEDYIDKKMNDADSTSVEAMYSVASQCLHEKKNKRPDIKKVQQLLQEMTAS
Description: Selectivity interaction (ActivX KiNativ screen (ex vivo kinase selectivity in human PBMCs)) EUB0001619a IRAK4. The format is cell-based. As to conditions: PBMC, at 1 µM.

Assay [6] has as its target Ribosomal protein S6 kinase alpha-4 (Homo sapiens) (UniProt O75676). Description: Selectivity interaction (ActivX KiNativ screen (ex vivo kinase selectivity in human PBMCs)) EUB0001619a RPS6KA4. The assay is classed as cell-based. As to conditions: PBMC, at 1 µM.
Assay [7] deals with Tyrosine-protein kinase JAK2 (Homo sapiens, UniProt O60674). Description: Selectivity interaction (Kinase counterscreening (biochemical assay)) EUB0000604a JAK2.
For assay [8], the target named is Mitogen-activated protein kinase 3 (Homo sapiens, UniProt P27361). As to conditions: at 10 µM.
The target in assay [9] is Tyrosine-protein kinase Fyn (Homo sapiens) (UniProt P06241). As to conditions: at 10 µM.
Assay [10] has as its target Serine/threonine-protein kinase PAK 1 (Homo sapiens) (UniProt Q13153). Description: Selectivity interaction (KinomeScan (DiscoverX)) EUB0000695a PAK1. As to conditions: at 100 nM.
Assay [11] deals with T3, Serine/threonine-protein kinase D2 (Homo sapiens) (UniProt Q9BZL6).
T3 sequence (whole entry): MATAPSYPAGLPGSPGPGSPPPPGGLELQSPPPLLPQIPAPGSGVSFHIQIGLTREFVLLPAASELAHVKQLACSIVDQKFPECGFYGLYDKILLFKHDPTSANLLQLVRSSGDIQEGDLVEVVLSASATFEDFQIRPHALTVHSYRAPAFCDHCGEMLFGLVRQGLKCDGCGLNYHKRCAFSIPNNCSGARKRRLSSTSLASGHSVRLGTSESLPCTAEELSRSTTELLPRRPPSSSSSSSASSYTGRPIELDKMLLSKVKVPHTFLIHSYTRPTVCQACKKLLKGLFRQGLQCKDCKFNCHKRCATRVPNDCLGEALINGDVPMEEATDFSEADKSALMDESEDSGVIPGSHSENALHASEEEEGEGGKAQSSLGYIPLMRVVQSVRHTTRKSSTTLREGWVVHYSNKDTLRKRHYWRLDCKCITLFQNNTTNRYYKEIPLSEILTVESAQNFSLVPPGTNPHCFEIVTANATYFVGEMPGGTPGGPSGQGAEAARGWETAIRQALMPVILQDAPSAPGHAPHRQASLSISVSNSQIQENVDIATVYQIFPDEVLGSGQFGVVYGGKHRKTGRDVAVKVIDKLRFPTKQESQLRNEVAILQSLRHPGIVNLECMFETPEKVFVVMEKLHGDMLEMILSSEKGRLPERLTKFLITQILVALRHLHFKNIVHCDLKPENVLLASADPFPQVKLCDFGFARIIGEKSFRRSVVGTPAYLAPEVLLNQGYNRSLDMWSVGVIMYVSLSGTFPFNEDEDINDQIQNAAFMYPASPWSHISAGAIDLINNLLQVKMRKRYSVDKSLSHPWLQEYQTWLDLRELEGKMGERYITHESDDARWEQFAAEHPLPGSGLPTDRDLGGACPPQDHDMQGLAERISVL
Description: Selectivity interaction (KinomeScan (DiscoverX)) EUB0000045b PRKD2.

Assay [12] has as its target DNA (cytosine-5)-methyltransferase 3A (Homo sapiens) (UniProt Q9Y6K1). Description: Selectivity interaction (Methyltransferase screen (radiometric assays, panel of 8 PRMTs, 21 protein lysine methyltransferases, 3 DNA methyltransferases, and one RNA methyltransferase)) EUB0000272b DNMT3A.

Chain of DNA (cytosine-5)-methyltransferase 3A (Homo sapiens) (Q9Y6K1 whole entry, looked up): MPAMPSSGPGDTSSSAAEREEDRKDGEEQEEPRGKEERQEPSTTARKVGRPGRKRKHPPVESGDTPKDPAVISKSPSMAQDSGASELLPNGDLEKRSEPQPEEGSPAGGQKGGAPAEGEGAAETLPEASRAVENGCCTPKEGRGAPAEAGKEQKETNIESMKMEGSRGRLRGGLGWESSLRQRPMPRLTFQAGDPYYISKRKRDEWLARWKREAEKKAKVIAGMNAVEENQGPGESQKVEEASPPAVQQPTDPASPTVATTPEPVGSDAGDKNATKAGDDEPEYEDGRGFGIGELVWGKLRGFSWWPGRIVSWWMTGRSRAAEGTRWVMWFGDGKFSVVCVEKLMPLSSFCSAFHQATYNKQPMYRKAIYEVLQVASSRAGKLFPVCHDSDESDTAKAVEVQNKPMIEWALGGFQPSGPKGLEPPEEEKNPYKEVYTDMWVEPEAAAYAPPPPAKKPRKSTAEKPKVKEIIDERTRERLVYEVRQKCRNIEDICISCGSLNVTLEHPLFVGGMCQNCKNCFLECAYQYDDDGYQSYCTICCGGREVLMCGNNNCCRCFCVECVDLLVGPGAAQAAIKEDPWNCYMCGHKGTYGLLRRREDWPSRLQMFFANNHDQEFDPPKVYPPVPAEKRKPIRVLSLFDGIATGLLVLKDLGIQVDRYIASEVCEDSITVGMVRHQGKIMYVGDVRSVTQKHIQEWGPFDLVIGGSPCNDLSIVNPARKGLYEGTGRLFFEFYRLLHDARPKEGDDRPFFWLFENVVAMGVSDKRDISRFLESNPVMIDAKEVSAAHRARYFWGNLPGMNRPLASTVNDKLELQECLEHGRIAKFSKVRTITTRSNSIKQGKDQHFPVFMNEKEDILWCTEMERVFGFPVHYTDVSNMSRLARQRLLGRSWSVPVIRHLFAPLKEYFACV
Chain of Serine/threonine-protein kinase PAK 1 (Homo sapiens) (Q13153 whole entry): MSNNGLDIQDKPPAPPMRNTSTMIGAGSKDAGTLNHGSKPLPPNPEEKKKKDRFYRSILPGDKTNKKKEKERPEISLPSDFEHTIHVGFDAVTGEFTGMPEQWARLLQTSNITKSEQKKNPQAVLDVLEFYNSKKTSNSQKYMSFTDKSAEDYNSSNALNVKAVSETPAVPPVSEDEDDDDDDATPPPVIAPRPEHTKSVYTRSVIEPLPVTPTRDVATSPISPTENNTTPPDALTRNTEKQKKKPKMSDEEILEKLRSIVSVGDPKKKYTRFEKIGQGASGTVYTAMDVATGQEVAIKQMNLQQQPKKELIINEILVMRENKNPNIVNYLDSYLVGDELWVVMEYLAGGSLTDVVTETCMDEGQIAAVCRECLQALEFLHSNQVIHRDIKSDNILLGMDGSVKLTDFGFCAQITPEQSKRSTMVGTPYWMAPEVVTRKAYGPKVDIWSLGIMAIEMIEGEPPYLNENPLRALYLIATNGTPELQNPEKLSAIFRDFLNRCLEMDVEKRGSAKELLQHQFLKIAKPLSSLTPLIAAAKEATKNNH
Chain of Serine/threonine-protein kinase Nek7 (Homo sapiens) (Q8TDX7 whole entry, looked up): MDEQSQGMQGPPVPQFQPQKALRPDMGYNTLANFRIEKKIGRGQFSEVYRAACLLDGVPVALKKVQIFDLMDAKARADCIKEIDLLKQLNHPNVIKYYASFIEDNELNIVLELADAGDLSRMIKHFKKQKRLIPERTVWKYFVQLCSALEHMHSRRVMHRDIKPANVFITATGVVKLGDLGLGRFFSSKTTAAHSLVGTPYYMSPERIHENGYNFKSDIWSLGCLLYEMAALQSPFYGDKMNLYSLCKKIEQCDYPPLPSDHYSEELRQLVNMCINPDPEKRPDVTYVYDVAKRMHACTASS
Chain of Ribosomal protein S6 kinase alpha-4 (Homo sapiens) (O75676 whole entry, looked up): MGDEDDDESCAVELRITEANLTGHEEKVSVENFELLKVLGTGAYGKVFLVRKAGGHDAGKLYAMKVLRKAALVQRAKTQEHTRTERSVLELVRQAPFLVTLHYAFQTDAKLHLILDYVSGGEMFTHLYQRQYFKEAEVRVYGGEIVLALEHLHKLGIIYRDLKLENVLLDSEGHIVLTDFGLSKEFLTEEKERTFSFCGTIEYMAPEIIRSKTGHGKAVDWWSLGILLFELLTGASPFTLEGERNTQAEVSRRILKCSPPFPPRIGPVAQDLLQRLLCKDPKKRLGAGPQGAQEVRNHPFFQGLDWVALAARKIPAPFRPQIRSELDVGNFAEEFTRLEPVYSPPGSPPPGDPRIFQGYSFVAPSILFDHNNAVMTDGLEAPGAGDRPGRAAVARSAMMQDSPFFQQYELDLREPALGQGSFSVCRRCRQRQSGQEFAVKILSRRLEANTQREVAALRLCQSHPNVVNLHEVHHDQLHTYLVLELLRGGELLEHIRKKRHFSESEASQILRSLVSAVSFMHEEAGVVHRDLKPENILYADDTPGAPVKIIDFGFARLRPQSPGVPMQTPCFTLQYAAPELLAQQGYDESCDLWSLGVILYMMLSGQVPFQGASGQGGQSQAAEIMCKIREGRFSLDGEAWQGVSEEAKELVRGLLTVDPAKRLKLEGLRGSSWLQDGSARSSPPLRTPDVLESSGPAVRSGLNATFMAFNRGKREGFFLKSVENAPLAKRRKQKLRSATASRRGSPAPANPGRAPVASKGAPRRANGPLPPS
Chain of Tyrosine-protein kinase Fyn (Homo sapiens) (P06241 2-537 limits assumed): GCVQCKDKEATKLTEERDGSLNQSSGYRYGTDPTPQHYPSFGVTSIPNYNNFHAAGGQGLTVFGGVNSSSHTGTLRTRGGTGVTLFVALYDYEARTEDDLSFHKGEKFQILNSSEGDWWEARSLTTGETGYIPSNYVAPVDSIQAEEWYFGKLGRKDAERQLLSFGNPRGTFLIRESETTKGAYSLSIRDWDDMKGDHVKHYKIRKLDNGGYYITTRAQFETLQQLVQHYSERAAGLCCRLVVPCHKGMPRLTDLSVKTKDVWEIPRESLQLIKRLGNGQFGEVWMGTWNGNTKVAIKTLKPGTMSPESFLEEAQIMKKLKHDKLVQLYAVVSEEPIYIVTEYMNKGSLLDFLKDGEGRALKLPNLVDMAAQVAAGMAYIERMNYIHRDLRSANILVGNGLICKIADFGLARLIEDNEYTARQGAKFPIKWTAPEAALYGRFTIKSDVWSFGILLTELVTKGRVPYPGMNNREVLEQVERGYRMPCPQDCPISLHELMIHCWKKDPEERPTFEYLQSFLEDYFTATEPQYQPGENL
Chain of Mitogen-activated protein kinase 3 (P27361 whole entry): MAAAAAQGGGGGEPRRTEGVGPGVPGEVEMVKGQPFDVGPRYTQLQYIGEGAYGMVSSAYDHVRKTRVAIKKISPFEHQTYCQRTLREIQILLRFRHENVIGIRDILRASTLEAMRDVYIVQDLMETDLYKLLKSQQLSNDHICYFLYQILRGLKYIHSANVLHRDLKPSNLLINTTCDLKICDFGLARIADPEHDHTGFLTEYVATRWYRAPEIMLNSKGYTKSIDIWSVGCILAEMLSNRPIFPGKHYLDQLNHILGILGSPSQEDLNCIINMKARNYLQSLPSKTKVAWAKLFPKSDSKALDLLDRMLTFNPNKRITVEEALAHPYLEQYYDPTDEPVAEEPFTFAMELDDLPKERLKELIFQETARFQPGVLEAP
Chain of Ribosomal protein S6 kinase alpha-3 (P51812 whole entry): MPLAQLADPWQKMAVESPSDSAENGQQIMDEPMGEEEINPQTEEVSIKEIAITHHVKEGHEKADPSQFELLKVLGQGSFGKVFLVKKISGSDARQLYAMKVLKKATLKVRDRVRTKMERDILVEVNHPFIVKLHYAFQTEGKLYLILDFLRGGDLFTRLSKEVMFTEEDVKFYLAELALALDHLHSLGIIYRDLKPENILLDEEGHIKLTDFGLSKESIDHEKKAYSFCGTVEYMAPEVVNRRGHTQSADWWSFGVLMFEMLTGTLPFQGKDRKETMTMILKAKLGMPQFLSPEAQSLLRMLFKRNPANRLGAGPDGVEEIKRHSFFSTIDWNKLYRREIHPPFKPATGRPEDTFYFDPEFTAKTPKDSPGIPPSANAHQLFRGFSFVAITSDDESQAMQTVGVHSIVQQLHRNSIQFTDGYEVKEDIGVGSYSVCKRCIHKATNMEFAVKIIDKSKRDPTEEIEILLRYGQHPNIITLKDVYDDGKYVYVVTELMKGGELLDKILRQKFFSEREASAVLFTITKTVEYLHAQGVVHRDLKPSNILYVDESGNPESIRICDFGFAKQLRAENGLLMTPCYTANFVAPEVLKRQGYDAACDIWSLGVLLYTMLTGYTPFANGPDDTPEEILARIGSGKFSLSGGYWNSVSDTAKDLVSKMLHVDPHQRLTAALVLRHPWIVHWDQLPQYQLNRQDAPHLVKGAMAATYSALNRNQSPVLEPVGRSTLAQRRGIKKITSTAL

In turn, `C=CC(=O)Nc1ccc(C(=O)Nc2[nH]nc3c2CN(C(=O)N[C@H](CN(C)C)c2ccccc2)C3(C)C)cc1` came in with a % of engagement in assay [1] of 13.1%.
Molecule `CNC(=O)Nc1ccc(-c2nc(N3CC4CCC(C3)O4)c3cnn(C4CCC5(CC4)OCCO5)c3n2)cc1` had a % of control in assay [2] of 100%.
The molecule `CC(C)(O)[C@H](F)CN1Cc2cc(NC(=O)c3cnn4cccnc34)c(N3CCOCC3)cc2C1=O` had a dTM in [3] of 0.2 K.
In turn, `CN(C)CCOc1ccc(-c2nc(-c3ccncc3)c(-c3ccc4c(c3)CC/C4=N\O)[nH]2)cc1` showed a % of control in assay [4] of 85%.
Take `N#Cc1cccc(-c2c[nH]c3ncnc(N4CCOCC4)c23)c1`: the % of inhibition in assay [5] turned out to be 11%; in [6] it was 20%.
For the molecule `Cc1cnc(Nc2ccc(F)cc2Cl)nc1-c1c[nH]c(C(=O)N[C@H](CO)c2cccc(Cl)c2)c1`, the Ki in assay [7] was above 4 µM.
Turning to `CCN(CC)CCCCNc1ncc2cc(-c3cc(OC)cc(OC)c3)c(NC(=O)NC(C)(C)C)nc2n1`, the % of control in assay [8] and in assay [9] was 100% in each case.
Molecule `Cc1cc(F)c(C(=O)Nc2cccc(-c3nncn3C(C)C)n2)cc1-n1cnc(C2CC2)c1` returned a % of control in assay [10] of 100%.
Turning to `C=CC(=O)Nc1cc(-n2c(=O)ccc3cnc4ccc(-c5ccc(NS(C)(=O)=O)cc5)cc4c32)ccc1C`, the values for the % of control in [11] (at 1 µM) and in [11] (at 10 µM) were 87% and 82%, respectively.
With `Cc1cc(C)cc([C@H]2c3cc(C)ccc3NC(=O)CN2C(=O)c2ccc(Br)s2)c1`, the % of activity worked out at 98.3% in [12] (at 1 µM) and 93% in assay [12] (at 10 µM).

By Ki is commonly meant the equilibrium dissociation constant of an inhibitor or competing ligand from its target. A low value points to tighter binding.
